The NIST ThermoML archive (doi:10.1021/je900387e)

Experiment: xn = mol fraction of the nth substance listed
Conditions: Liquid, Pycnometric method

CCCCCl [1-chlorobutane] + O=C=O
mass density [kg/m3]
Conditions | 308.2 K | 313.1 K
6210 kPa, x1 = 0.1488 | 843 | –
6560 kPa, x1 = 0.0981 | 819 | –
6560 kPa, x1 = 0.1488 | 848 | –
6760 kPa, x1 = 0.1488 | – | 825
6790 kPa, x1 = 0.0981 | 825 | –
6850 kPa, x1 = 0.1488 | 853 | –
6910 kPa, x1 = 0.0744 | 786 | –
6980 kPa, x1 = 0.0981 | 827 | –
6980 kPa, x1 = 0.1488 | – | 828
7080 kPa, x1 = 0.0744 | 791 | –
7130 kPa, x1 = 0.0981 | – | 791
7140 kPa, x1 = 0.0981 | 831 | –
7240 kPa, x1 = 0.0483 | 742 | –
7250 kPa, x1 = 0.1488 | 858 | –
7310 kPa, x1 = 0.0981 | – | 795
7310 kPa, x1 = 0.1488 | – | 832
7320 kPa, x1 = 0.0981 | 834 | –
7330 kPa, x1 = 0.0483 | 747 | –
7430 kPa, x1 = 0.0483 | 752 | –
7460 kPa, x1 = 0.0744 | – | 754
7470 kPa, x1 = 0.0744 | 801 | –
7500 kPa, x1 = 0.0981 | 837 | –
7530 kPa, x1 = 0.0483 | 757 | –
7570 kPa, x1 = 0.0981 | – | 802
7640 kPa, x1 = 0.0243 | 670 | –
7640 kPa, x1 = 0.0744 | – | 759
7660 kPa, x1 = 0.0483 | 761 | –
7670 kPa, x1 = 0.0243 | 674 | –
7700 kPa, x1 = 0.0744 | 807 | –
7710 kPa, x1 = 0.0243 | 678 | –
7730 kPa, x1 = 0.0981 | 840 | –
7740 kPa, x1 = 0.0243 | 682 | –
7740 kPa, x1 = 0.1488 | 863 | 837
7770 kPa, x1 = 0.0744 | – | 764
7780 kPa, x1 = 0.0243 | 686 | –
7790 kPa, x1 = 0.0483 | 766 | –
7820 kPa, x1 = 0.0243 | 690 | –
7860 kPa, x1 = 0.0243 | 694 | –
7860 kPa, x1 = 0.0981 | – | 807
7890 kPa, x1 = 0.0483 | – | 693
7940 kPa, x1 = 0.0243 | 701 | –
7940 kPa, x1 = 0.0483 | 770 | 697
7940 kPa, x1 = 0.0744 | – | 769
7940 kPa, x1 = 0.0981 | 843 | –
7950 kPa, x1 = 0.0744 | 812 | –
8000 kPa, x1 = 0.0483 | – | 701
8030 kPa, x1 = 0.0243 | 707 | –
8070 kPa, x1 = 0.0744 | 814 | –
8090 kPa, x1 = 0.0744 | – | 773
8100 kPa, x1 = 0.0483 | – | 707
8110 kPa, x1 = 0.0483 | 776 | –
8120 kPa, x1 = 0.0243 | 713 | –
8170 kPa, x1 = 0.0981 | 846 | –
8180 kPa, x1 = 0.0981 | – | 813
8190 kPa, x1 = 0.1488 | – | 841
8210 kPa, x1 = 0.0483 | – | 713
8220 kPa, x1 = 0.0243 | – | 545
8230 kPa, x1 = 0.0243 | 720 | 549
8230 kPa, x1 = 0.0744 | 817 | –
8250 kPa, x1 = 0.0243 | – | 555
8270 kPa, x1 = 0.0744 | – | 778
8280 kPa, x1 = 0.0243 | – | 563
8280 kPa, x1 = 0.0483 | 780 | –
8290 kPa, x1 = 0.1488 | 868 | –
8300 kPa, x1 = 0.0243 | – | 571
8330 kPa, x1 = 0.0243 | – | 580
8340 kPa, x1 = 0.0483 | – | 719
8350 kPa, x1 = 0.0243 | 727 | –
8350 kPa, x1 = 0.0744 | 820 | –
8360 kPa, x1 = 0.0243 | – | 588
8390 kPa, x1 = 0.0981 | 849 | –
8400 kPa, x1 = 0.0243 | – | 597
8450 kPa, x1 = 0.0483 | – | 725
8470 kPa, x1 = 0.0243 | – | 610
8470 kPa, x1 = 0.0483 | 785 | –
8470 kPa, x1 = 0.0744 | – | 782
8480 kPa, x1 = 0.0243 | 734 | –
8500 kPa, x1 = 0.0744 | 822 | –
8510 kPa, x1 = 0.0981 | – | 819
8550 kPa, x1 = 0.0243 | – | 623
8560 kPa, x1 = 0.0483 | 788 | –
8570 kPa, x1 = 0.0243 | 738 | –
8600 kPa, x1 = 0.0483 | – | 732
8630 kPa, x1 = 0.0981 | 852 | –
8640 kPa, x1 = 0.0744 | 825 | –
8650 kPa, x1 = 0.0243 | – | 637
8670 kPa, x1 = 0.0483 | 790 | –
8680 kPa, x1 = 0.0744 | – | 787
8760 kPa, x1 = 0.0483 | – | 738
8770 kPa, x1 = 0.0243 | – | 651
8770 kPa, x1 = 0.0483 | 793 | –
8800 kPa, x1 = 0.0243 | 748 | –
8830 kPa, x1 = 0.0744 | 828 | –
8840 kPa, x1 = 0.1488 | 873 | –
8890 kPa, x1 = 0.0483 | 795 | –
8890 kPa, x1 = 0.0981 | – | 825
8900 kPa, x1 = 0.0744 | – | 792
8900 kPa, x1 = 0.0981 | 856 | –
8910 kPa, x1 = 0.0243 | 753 | –
8910 kPa, x1 = 0.1488 | – | 849
8930 kPa, x1 = 0.0243 | – | 666
8940 kPa, x1 = 0.0483 | – | 745
8970 kPa, x1 = 0.0744 | 830 | –
9000 kPa, x1 = 0.0483 | 798 | –
9050 kPa, x1 = 0.0243 | 758 | –
9120 kPa, x1 = 0.0483 | 800 | –
9130 kPa, x1 = 0.0243 | – | 682
9150 kPa, x1 = 0.0483 | – | 751
9150 kPa, x1 = 0.0744 | – | 797
9160 kPa, x1 = 0.0744 | 833 | –
9160 kPa, x1 = 0.0981 | 859 | –
9190 kPa, x1 = 0.0243 | 763 | –
9230 kPa, x1 = 0.0483 | 803 | –
9260 kPa, x1 = 0.0981 | – | 830
9330 kPa, x1 = 0.0744 | 836 | –
9350 kPa, x1 = 0.0483 | 805 | –
9370 kPa, x1 = 0.0483 | – | 759
9390 kPa, x1 = 0.0243 | – | 698
9410 kPa, x1 = 0.0744 | – | 802
9450 kPa, x1 = 0.0981 | 862 | –
9450 kPa, x1 = 0.1488 | – | 853
9480 kPa, x1 = 0.1488 | 878 | –
9490 kPa, x1 = 0.0483 | 808 | –
9530 kPa, x1 = 0.0744 | 838 | –
9620 kPa, x1 = 0.0483 | – | 765
9640 kPa, x1 = 0.0483 | 811 | –
9670 kPa, x1 = 0.0744 | – | 807
9700 kPa, x1 = 0.0744 | 841 | –
9710 kPa, x1 = 0.0243 | – | 716
9720 kPa, x1 = 0.0981 | – | 837
9780 kPa, x1 = 0.0483 | 813 | –
9780 kPa, x1 = 0.0981 | 865 | –
9810 kPa, x1 = 0.0483 | – | 770
9910 kPa, x1 = 0.0483 | 815 | –
9940 kPa, x1 = 0.0744 | 844 | –
9960 kPa, x1 = 0.0744 | – | 812
10000 kPa, x1 = 0.0483 | – | 775
10020 kPa, x1 = 0.0243 | – | 729
10030 kPa, x1 = 0.0981 | 869 | –
10110 kPa, x1 = 0.0744 | 846 | –
10150 kPa, x1 = 0.1488 | 883 | –
10190 kPa, x1 = 0.0981 | – | 843
10220 kPa, x1 = 0.0483 | – | 780
10270 kPa, x1 = 0.1488 | – | 860
10280 kPa, x1 = 0.0243 | – | 738
10290 kPa, x1 = 0.0744 | – | 817
10380 kPa, x1 = 0.0981 | 872 | –
10460 kPa, x1 = 0.0483 | – | 785
10510 kPa, x1 = 0.0981 | 874 | –
10550 kPa, x1 = 0.0243 | – | 748
10620 kPa, x1 = 0.0744 | – | 823
10680 kPa, x1 = 0.0483 | – | 790
10690 kPa, x1 = 0.0981 | – | 849
10700 kPa, x1 = 0.0243 | – | 753
10850 kPa, x1 = 0.0243 | – | 758
10850 kPa, x1 = 0.1488 | 888 | –
10860 kPa, x1 = 0.1488 | – | 865
10950 kPa, x1 = 0.0483 | – | 795
11620 kPa, x1 = 0.1488 | 893 | –
12430 kPa, x1 = 0.1488 | 898 | –
13270 kPa, x1 = 0.1488 | 904 | –
13660 kPa, x1 = 0.1488 | 906 | –
14090 kPa, x1 = 0.1488 | 909 | –
14420 kPa, x1 = 0.1488 | 911 | –
14870 kPa, x1 = 0.1488 | 914 | –
